{
  "source": "patent US20080235824A1",
  "about": "“Use of Esterase Genes as Selectable Markers for Transforming Plant Cells” (priority 2006, published 2008)",
  "key": {"[1]": {"system": "tobacco cultivar Xanthi leaf explants", "assay": "Agrobacterium transformation of tobacco with selection on detergent or kanamycin", "type": "cell-based, Nicotiana tabacum", "settings": "for Transformation frequency (%): confirmed by PCR", "description": "Transgenic tobacco (Nicotiana tabacum) cultivar “Xanthi” plants were created using the Agrobacterium tumefaciens DNA delivery method [Horsch et al., 1985] using pIPG833. Selection was on 1% or on 0.05% Tween 20 added to both shoot and root regeneration media. As a control for comparative purposes, pIPG786 was used (carrying the nptII gene for kanamycin resistance) for transformation and 100 micrograms/ml kanamycin was used for selection.\nTransgenic tobacco (Nicotiana tabacum) cultivar “Xanthi” plants were created using the Agrobacterium tumefaciens DNA delivery method [Horsch et al., 1985] using pIPG833. Selection was on 1% or on 0.05% Span 20 added to both shoot and root regeneration media.\nTransgenic tobacco (Nicotiana tabacum) cultivar “Xanthi” plants were created using the Agrobacterium tumefaciens DNA delivery method [Horsch et al., 1985] using pIPG875. Selection was on 1% Span 20 added to the shoot regeneration medium and 0.05% Span 20 added to the root regeneration medium."}, "[2]": {"system": "tobacco cultivar Xanthi leaf explants", "assay": "Agrobacterium transformation of tobacco with selection on detergent or kanamycin", "type": "cell-based, Nicotiana tabacum", "settings": "pIPG833 bovine PGE, 0.5% Tween, 73 explants"}, "[3]": {"system": "tomato cultivar Micro-Tom leaf explants", "assay": "Agrobacterium transformation of tomato with selection on detergent or kanamycin", "type": "cell-based, Lycopersicon esculentum", "settings": "for No. of independent calli forming shoots / No. of rooted shoots / Transformation frequency (%): tomato Micro-Tom, pIPG768 bovine PGE; for Transformation frequency (%): confirmed by PCR", "description": "Transgenic tomato (Lycopersicon esculentum) cultivar “Micro-Tom” plants were created using the Agrobacterium tumefaciens DNA delivery method [Riggs et al., 2001; Sun et al., 2006] using pIPG768. Selection was either on 1% Tween 20 added to both shoot and root regeneration media. As controls for comparative purposes, 100 micrograms/ml kanamycin was used."}, "[4]": {"system": "tomato leaf explants", "assay": "Survival of tomato leaf explants on regeneration medium with detergents", "type": "cell-based, Lycoperisicon esculentum", "settings": "1% detergent; for Survival of tomato leaf explants on regeneration medium: surviving/total explants", "protocol": "Tween 20 was similarly evaluated as a potential selective agent for use in tomato (Lycoperisicon esculentum) transformations by placing tomato leaf explants placed into tissue culture; Tween 20 was added to tomato regeneration (shooting) medium normally used in tomato transformations (Riggs et al., 2001) at a 1% concentration. Each treatment consisted of 40 sterilized leaf explants placed in four tissue culture plates carrying 10 explants each. Survival of the explants was assayed weekly over four weeks on these media."}, "[5]": {"system": "geranium petiole explants", "assay": "Survival of geranium petiole explants on regeneration medium with detergents", "type": "cell-based, Pelargonium X hortorum", "settings": "for Survival of geranium petiole explants on regeneration medium: surviving/total explants", "protocol": "Tween 20, a nonionic, fatty acid ester detergent, was evaluated as a potential selective agent for use in geranium (Pelargonium X hortorum) transformation experiments by placing geranium petiole explants into tissue culture with the addition to Tween 20 to the regeneration (shooting) medium normally used in geranium transformations (Robichon et al., 1995). Tween 20 was added at three concentrations: 1%, 0.1% and 0.01%. Each treatment consisted of 40 sterilized petiole explants placed in four tissue culture plates carrying 10 explants each. Survival of the explants was assayed weekly over four weeks on these media. Potential selective agent Span 20, also a nonionic, fatty acid ester detergent, was similarly evaluated, except that concentrations of 1%, 0.5% and 0.25% were evaluated over a twelve week period of time. The nonionic detergent Triton X-100, which is not a fatty acid ester detergent, was included for comparative purposes."}, "[6]": {"system": "rooting tomato plants", "assay": "Root growth of rooting tomato plants on 1% Tween 20 medium", "type": "in vivo", "description": "The plant on the left, labeled “731”, was transformed using kanamycin selection and the kanamycin resistance gene driven by the 35S promoter on pIPG731 (ie., “empty” vector, without a lipase gene). The plant on the right, labeled “768”, was similarly transformed using kanamycin selection and the kanamycin resistance gene driven by the 35S promoter on pIPG768 (carrying a lipase gene). Both plants were rooted, kanamycin resistant transformants. Both plants, with roots removed to ca. 1-4 mm from the base, were transferred to rooting medium containing 1% Tween 20. After one week, the roots of both plants had grown to about the extent of the pIPG731 transformed plant, and the small ink marks were placed on the plates to indicate the extent of the root growth. Two weeks later, the roots on the plant transformed with pIPG731 had ceased to elongate and its roots started to appear brown at the growing tips, while the roots on the plant transformed with pIPG768 continued growing.\nIn order to test if the rooting medium inhibited or killed nontransgenic tomato that were rooting, regenerating nontransgenic tomato plants that were rooting, as well as transgenic tomato plants carrying pIPG678 that were rooting were placed on 1% Tween 20 medium."}, "[7]": {"settings": "tobacco Xanthi, pIPG833 bovine PGE, 1% Tween, 73 explants"}, "[8]": {"settings": "1% Tween in shoot and root media, Exp. 1, 253 explants"}},
  "data": [
    {"substance": "Tween 20", "values": [
      {"measurement": "Tissue provided with pIPG833 producing shoots", "setting": "[1]; regeneration medium with 0.05% detergent", "result": 100, "unit": "%"},
      {"measurement": "Tobacco leaf material provided with bovine PGE on pIPG833 producing green shoots", "setting": "[1]; regeneration medium with 1% detergent", "result": 16, "unit": "%"},
      {"measurement": "Transformation efficiency", "setting": "[1]; tobacco Xanthi, pIPG833, detergent at the 0.05% level", "result": 6, "unit": "%"},
      {"measurement": "No. of independent calli forming shoots", "setting": "[1]; tobacco Xanthi, pIPG833 bovine PGE, 0.5% Tween, 73 explants", "result": 73},
      {"measurement": "No. of independent calli forming shoots", "setting": "[1]; tobacco Xanthi, pIPG833 bovine PGE, 1% Tween in shoot and root media, 73 explants", "result": 12},
      {"measurement": "No. of rooted shoots", "setting": "[1]; [7]", "result": 12},
      {"measurement": "Transformation frequency (%)", "setting": "[1]; [7]", "result": 5, "unit": "%"},
      {"measurement": "Transformation frequency (%)", "setting": "[1]; tobacco Xanthi, pIPG833 bovine PGE, 1% Tween, 73 explants, listed as Tween", "result": 5, "unit": "%"},
      {"measurement": "No. of rooted shoots", "setting": "[2]", "result": 73},
      {"measurement": "Transformation frequency (%)", "setting": "[2]; confirmed by PCR", "result": 6, "unit": "%"},
      {"measurement": "Share of tomato leaf material provided with bovine PGE on pIPG768 producing green shoots", "setting": "[3]; regeneration medium with 1% Tween 20", "result": "nearly half"},
      {"measurement": "Fate of tomato leaf material provided with empty vector control plasmid", "setting": "[3]; regeneration medium with 1% Tween 20, 30 days of selection", "result": "either died or produced a small amount of brown callus that died"},
      {"measurement": "No. of independent calli forming shoots", "setting": "[3]; [8]", "result": 25},
      {"measurement": "No. of rooted shoots", "setting": "[3]; [8]", "result": 25},
      {"measurement": "Transformation frequency (%)", "setting": "[3]; 1% Tween, Exp. 1, 253 explants", "result": 7, "unit": "%"},
      {"measurement": "No. of independent calli forming shoots", "setting": "[3]; 1% Tween, Exp. 2, 204 explants", "result": 15},
      {"measurement": "No. of rooted shoots", "setting": "[3]; 1% Tween, Exp. 2, 204 explants", "result": 15},
      {"measurement": "Transformation frequency (%)", "setting": "[3]; 1% Tween, Exp. 2, 204 explants", "result": 4, "unit": "%"},
      {"measurement": "No. of independent calli forming shoots", "setting": "[3]; 1% Tween, Exp. 3, 275 explants", "result": 48},
      {"measurement": "No. of rooted shoots", "setting": "[3]; 1% Tween, Exp. 3, 275 explants", "result": 48},
      {"measurement": "Transformation frequency (%)", "setting": "[3]; 1% Tween, Exp. 3, 275 explants", "result": 4, "unit": "%"},
      {"measurement": "Survival of tomato leaf explants on regeneration medium", "setting": "[4]; Week 1", "result": "8/40"},
      {"measurement": "Survival of tomato leaf explants on regeneration medium", "setting": "[4]; Week 2", "result": "8/40"},
      {"measurement": "Survival of tomato leaf explants on regeneration medium", "setting": "[4]; Week 3", "result": "3/40"},
      {"measurement": "Survival of tomato leaf explants on regeneration medium", "setting": "[4]; Week 4", "result": "0/40"},
      {"measurement": "Killing of tomato explants in tissue culture (in words)", "setting": "[4]; summary of Table 2", "result": "completely killed all tomato explants in four weeks"},
      {"measurement": "Survival of geranium petiole explants on regeneration medium", "setting": "[5]; 0.01% detergent, Week 1", "result": "33/40"},
      {"measurement": "Survival of geranium petiole explants on regeneration medium", "setting": "[5]; 0.01% detergent, Week 2", "result": "27/40"},
      {"measurement": "Survival of geranium petiole explants on regeneration medium", "setting": "[5]; 0.01% detergent, Week 3", "result": "20/40"},
      {"measurement": "Survival of geranium petiole explants on regeneration medium", "setting": "[5]; 0.01% detergent, Week 4", "result": "0/40"},
      {"measurement": "Survival of geranium petiole explants on regeneration medium", "setting": "[5]; 0.1% detergent, Week 1", "result": "31/40"},
      {"measurement": "Survival of geranium petiole explants on regeneration medium", "setting": "[5]; 0.1% detergent, Week 2", "result": "10/40"},
      {"measurement": "Survival of geranium petiole explants on regeneration medium", "setting": "[5]; 0.1% detergent, Week 3", "result": "0/40"},
      {"measurement": "Survival of geranium petiole explants on regeneration medium", "setting": "[5]; 0.1% detergent, Week 4", "result": "0/40"},
      {"measurement": "Survival of geranium petiole explants on regeneration medium", "setting": "[5]; 1% detergent, Week 1", "result": "10/40"},
      {"measurement": "Survival of geranium petiole explants on regeneration medium", "setting": "[5]; 1% detergent, Week 2", "result": "0/40"},
      {"measurement": "Survival of geranium petiole explants on regeneration medium", "setting": "[5]; 1% detergent, Week 3", "result": "0/40"},
      {"measurement": "Survival of geranium petiole explants on regeneration medium", "setting": "[5]; 1% detergent, Week 4", "result": "0/40"},
      {"measurement": "Killing of geranium explants in tissue culture (in words)", "setting": "[5]; summary of Table 1", "result": "completely killed all geranium explants in four weeks, even at the lowest level (0.01%) tested"},
      {"measurement": "Growth of transgenic tomato plants expressing bovine PGE", "setting": "[6]", "result": "did not affect growth"},
      {"measurement": "Root growth of nontransgenic rooting tomato plants", "setting": "[6]", "result": "completely and almost immediately inhibited root growth"}
    ]}
  ]
}
